Measurements published in the NIST ThermoML archive (doi:10.1021/je300280s).
“And” between values parts separate entries of the source, which are not always exact repeats. Equal values may be shown once. Numbers after ± are expanded uncertainties.

What was measured:
[1] = excess molar enthalpy (molar enthalpy of mixing); xn = mol fraction of the nth substance listed; conditions: 101.3 kPa, Liquid, Flow calorimetry
[2] = xn = mol fraction of the nth substance listed; conditions: 101.3 kPa, Liquid, Vibrating tube method

## CCCOC(C)=O [propyl ethanoate] + O
[1]; 288.15 K, x1 = 0.000935
  excess molar enthalpy: -0.00273 ± 0.000206 kcal/mol
[1]; 288.15 K, x1 = 0.001246
  excess molar enthalpy: -0.00364 ± 0.000213 kcal/mol
[1]; 288.15 K, x1 = 0.001248
  excess molar enthalpy: -0.00363 ± 0.000213 kcal/mol
[1]; 288.15 K, x1 = 0.001558
  excess molar enthalpy: -0.00452 ± 0.00022 kcal/mol
[1]; 288.15 K, x1 = 0.00156
  excess molar enthalpy: -0.00446 ± 0.00022 kcal/mol
[1]; 288.15 K, x1 = 0.001869
  excess molar enthalpy: -0.00535 ± 0.000227 kcal/mol
[1]; 288.15 K, x1 = 0.001871
  excess molar enthalpy: -0.00534 ± 0.000227 kcal/mol
[1]; 288.15 K, x1 = 0.00218
  excess molar enthalpy: -0.0062 ± 0.000234 kcal/mol
[1]; 288.15 K, x1 = 0.002182
  excess molar enthalpy: -0.00616 ± 0.000232 kcal/mol
[1]; 288.15 K, x1 = 0.002491
  excess molar enthalpy: -0.00703 ± 0.000239 kcal/mol
[1]; 288.15 K, x1 = 0.002494
  excess molar enthalpy: -0.00708 ± 0.000239 kcal/mol
[1]; 298.15 K, x1 = 0.000935
  excess molar enthalpy: -0.00206 ± 0.000201 kcal/mol
[1]; 298.15 K, x1 = 0.000936
  excess molar enthalpy: -0.0021 ± 0.000201 kcal/mol
[1]; 298.15 K, x1 = 0.000937
  excess molar enthalpy: -0.00212 ± 0.000201 kcal/mol
[1]; 298.15 K, x1 = 0.001247
  excess molar enthalpy: -0.00274 ± 0.000206 kcal/mol
[1]; 298.15 K, x1 = 0.001248
  excess molar enthalpy: -0.00277 ± 0.000206 kcal/mol
[1]; 298.15 K, x1 = 0.001249
  excess molar enthalpy: -0.00278 ± 0.000206 kcal/mol
[1]; 298.15 K, x1 = 0.001558
  excess molar enthalpy: -0.00347 ± 0.000213 kcal/mol
[1]; 298.15 K, x1 = 0.00156
  excess molar enthalpy: -0.00342 kcal/mol and -0.00343 kcal/mol
[1]; 298.15 K, x1 = 0.001869
  excess molar enthalpy: -0.00404 ± 0.000217 kcal/mol
[1]; 298.15 K, x1 = 0.001871
  excess molar enthalpy: -0.00407 ± 0.000217 kcal/mol
[1]; 298.15 K, x1 = 0.001872
  excess molar enthalpy: -0.00405 ± 0.000217 kcal/mol
[1]; 298.15 K, x1 = 0.002181
  excess molar enthalpy: -0.00472 ± 0.000222 kcal/mol
[1]; 298.15 K, x1 = 0.002183
  excess molar enthalpy: -0.00466 kcal/mol and -0.00472 kcal/mol
[1]; 298.15 K, x1 = 0.002492
  excess molar enthalpy: -0.00539 ± 0.000227 kcal/mol
[1]; 308.15 K, x1 = 0.000936
  excess molar enthalpy: -0.00148 kcal/mol and -0.00147 kcal/mol
[1]; 308.15 K, x1 = 0.001247
  excess molar enthalpy: -0.00196 kcal/mol and -0.00197 kcal/mol
[1]; 308.15 K, x1 = 0.001559
  excess molar enthalpy: -0.00245 kcal/mol and -0.00244 kcal/mol
[1]; 308.15 K, x1 = 0.00187
  excess molar enthalpy: -0.00286 kcal/mol and -0.00292 kcal/mol
[1]; 308.15 K, x1 = 0.002181
  excess molar enthalpy: -0.00332 kcal/mol and -0.00334 kcal/mol
[1]; 308.15 K, x1 = 0.002492
  excess molar enthalpy: -0.0037 kcal/mol and -0.00371 kcal/mol
[1]; 318.15 K, x1 = 0.000936
  excess molar enthalpy: -0.000911 ± 0.000191 kcal/mol
[1]; 318.15 K, x1 = 0.000937
  excess molar enthalpy: -0.000932 ± 0.000191 kcal/mol
[1]; 318.15 K, x1 = 0.001247
  excess molar enthalpy: -0.00119 ± 0.000194 kcal/mol
[1]; 318.15 K, x1 = 0.001248
  excess molar enthalpy: -0.00122 ± 0.000194 kcal/mol
[1]; 318.15 K, x1 = 0.001559
  excess molar enthalpy: -0.00148 ± 0.000196 kcal/mol
[1]; 318.15 K, x1 = 0.001561
  excess molar enthalpy: -0.00148 ± 0.000196 kcal/mol
[1]; 318.15 K, x1 = 0.00187
  excess molar enthalpy: -0.00175 ± 0.000198 kcal/mol
[1]; 318.15 K, x1 = 0.001873
  excess molar enthalpy: -0.00172 ± 0.000198 kcal/mol
[1]; 318.15 K, x1 = 0.002182
  excess molar enthalpy: -0.00201 ± 0.000201 kcal/mol
[1]; 318.15 K, x1 = 0.002184
  excess molar enthalpy: -0.00198 ± 0.000201 kcal/mol
[1]; 318.15 K, x1 = 0.002493
  excess molar enthalpy: -0.00221 ± 0.000203 kcal/mol
[1]; 318.15 K, x1 = 0.002496
  excess molar enthalpy: -0.00221 ± 0.000203 kcal/mol
[2]; 288.15 K, x1 = 0.000935
  mass density: 999.019 ± 0.033 kg/m3
[2]; 288.15 K, x1 = 0.001246
  mass density: 998.986 ± 0.033 kg/m3
[2]; 288.15 K, x1 = 0.001248
  mass density: 998.988 ± 0.033 kg/m3
[2]; 288.15 K, x1 = 0.001558
  mass density: 998.959 ± 0.033 kg/m3
[2]; 288.15 K, x1 = 0.00156
  mass density: 998.962 ± 0.033 kg/m3
[2]; 288.15 K, x1 = 0.001869
  mass density: 998.934 ± 0.033 kg/m3
[2]; 288.15 K, x1 = 0.001871
  mass density: 998.936 ± 0.033 kg/m3
[2]; 288.15 K, x1 = 0.00218
  mass density: 998.909 ± 0.033 kg/m3
[2]; 288.15 K, x1 = 0.002182
  mass density: 998.906 ± 0.033 kg/m3
[2]; 288.15 K, x1 = 0.002491
  mass density: 998.876 ± 0.033 kg/m3
[2]; 288.15 K, x1 = 0.002494
  mass density: 998.882 ± 0.033 kg/m3
[2]; 298.15 K, x1 = 0.000935
  mass density: 996.903 ± 0.1 kg/m3
[2]; 298.15 K, x1 = 0.000936
  mass density: 996.9 ± 0.034 kg/m3
[2]; 298.15 K, x1 = 0.000937
  mass density: 996.898 ± 0.1 kg/m3
[2]; 298.15 K, x1 = 0.001247
  mass density: 996.856 ± 0.13 kg/m3
[2]; 298.15 K, x1 = 0.001248
  mass density: 996.852 ± 0.034 kg/m3
[2]; 298.15 K, x1 = 0.001249
  mass density: 996.848 ± 0.13 kg/m3
[2]; 298.15 K, x1 = 0.001558
  mass density: 996.807 ± 0.17 kg/m3
[2]; 298.15 K, x1 = 0.00156
  mass density: 996.803 ± 0.17 kg/m3 and 996.805 ± 0.17 kg/m3
[2]; 298.15 K, x1 = 0.001869
  mass density: 996.762 ± 0.16 kg/m3
[2]; 298.15 K, x1 = 0.001871
  mass density: 996.758 ± 0.2 kg/m3
[2]; 298.15 K, x1 = 0.001872
  mass density: 996.748 ± 0.035 kg/m3
[2]; 298.15 K, x1 = 0.002181
  mass density: 996.714 ± 0.22 kg/m3
[2]; 298.15 K, x1 = 0.002183
  mass density: 996.703 ± 0.22 kg/m3 and 996.709 ± 0.23 kg/m3
[2]; 298.15 K, x1 = 0.002492
  mass density: 996.669 ± 0.27 kg/m3
[2]; 298.15 K, x1 = 0.002494
  mass density: 996.669 ± 0.034 kg/m3
[2]; 298.15 K, x1 = 0.002495
  mass density: 996.655 ± 0.12 kg/m3
[2]; 308.15 K, x1 = 0.000936
  mass density: 993.831 ± 0.037 kg/m3 and 993.832 ± 0.037 kg/m3
[2]; 308.15 K, x1 = 0.001247
  mass density: 993.761 ± 0.037 kg/m3
[2]; 308.15 K, x1 = 0.001559
  mass density: 993.691 ± 0.037 kg/m3 and 993.692 ± 0.037 kg/m3
[2]; 308.15 K, x1 = 0.00187
  mass density: 993.628 ± 0.037 kg/m3 and 993.621 ± 0.037 kg/m3
[2]; 308.15 K, x1 = 0.002181
  mass density: 993.559 ± 0.037 kg/m3 and 993.557 ± 0.037 kg/m3
[2]; 308.15 K, x1 = 0.002492
  mass density: 993.5 ± 0.037 kg/m3 and 993.503 ± 0.037 kg/m3
[2]; 318.15 K, x1 = 0.000936
  mass density: 989.957 ± 0.039 kg/m3
[2]; 318.15 K, x1 = 0.000937
  mass density: 989.951 ± 0.039 kg/m3
[2]; 318.15 K, x1 = 0.001247
  mass density: 989.872 ± 0.039 kg/m3
[2]; 318.15 K, x1 = 0.001248
  mass density: 989.86 ± 0.039 kg/m3
[2]; 318.15 K, x1 = 0.001559
  mass density: 989.782 ± 0.04 kg/m3
[2]; 318.15 K, x1 = 0.001561
  mass density: 989.779 ± 0.04 kg/m3
[2]; 318.15 K, x1 = 0.00187
  mass density: 989.693 ± 0.04 kg/m3
[2]; 318.15 K, x1 = 0.001873
  mass density: 989.698 ± 0.04 kg/m3
[2]; 318.15 K, x1 = 0.002182
  mass density: 989.605 ± 0.04 kg/m3
[2]; 318.15 K, x1 = 0.002184
  mass density: 989.612 ± 0.04 kg/m3
[2]; 318.15 K, x1 = 0.002493
  mass density: 989.536 ± 0.04 kg/m3
[2]; 318.15 K, x1 = 0.002496
  mass density: 989.532 ± 0.04 kg/m3
